According to patent publication US5922319A, “Methods of treating eye conditions with human leukocyte elastase (HLE) inhibitory agents” (University of Kentucky Research Foundation, priority 1989, dated 1999):

Tested on: rabbit corneas thermally burned (corneal scarring, fibroblast proliferation, neovascularization)
Assay: Thermal corneal burn in rabbit eyes, topical eye drops for two weeks, blind histopathology (H&E)
Type: in vivo
Experimental: 26 rabbits were tranquilized with acetylpromazine maleate, 16 mg/kg intramuscularly. 2% lidocaine HCl eye drops were instilled in each eye for corneal anesthesia. Once the corneas were anesthetized, an eyelid speculum was inserted and the lids were then separated. The corneas of each eye were thermally coagulated with the tip of a battery-powered ophthalmic cautery. […] Two drops of solution A, B or C were instilled in designated treated eyes every 15 min for 6 hrs., then every 2 hrs. for 12 hrs. Following this, two eye drops of the same solutions were instilled four times a day. Daily eye examination was performed and photographs were taken. Two weeks after treatment the rabbits were sacrificed by […] intracardiac injection of T-61 ([…]). Subsequently, the rabbits, eyeballs were enucleated, the globes placed in Bounri's solution (10% formalin solution) and submitted for histopathology cell analysis. The eyes were fixed with 10% formalin solution and labeled right (R) and left (L), as appropriate sectioned and stained with H & E (hematoxylin & eosin stains). Histological sections were read by a pathologist without knowledge of the previously undertaken experimental procedure (blind test).

## COC(=O)CCC(=O)N[C@@H](C)C(=O)N[C@@H](CCCCNC(=O)OCc1ccccc1)C(=O)N1CCC[C@H]1C(=O)CN(C(=O)Sc1nnnn1-c1ccccc1)C(C)C [Compound 2, S-(1-phenyl-5-tetrazoyl)-N-[methoxysuccinyl-alanyl-(Nε -Carbobenzoxy)lysylprolylmethyl]-N-isopropyl-thiocarbamate]
Solution B, 10 μg/ml in normal saline with 1.4% w/v polyvinyl alcohol, eye drops, two weeks after corneal burn
  Microscopic description of rabbit eyes: intensity of the reaction compared with the untreated specimen: The reaction is not quite as intense
Solution C, 50 μg/ml, versus untreated eyes
  Protection against scarring due to corneal burns (magnitude): tenfold
Ophthalmic solutions B or C, rabbit corneal burn
  Overall effect of ophthalmic solutions on fibrosis, neovascularization and inflammation in corneal wound-healing: effective in reducing fibrosis, neovascularization and inflammation
